Measured values published in patent US4327097A, “Novel penicillins” (Toyama Chemical Co., Ltd., priority 1974, dated 1982).

Assays:
[1] = test system: β-lactamase, Pseudomonas aeruginosa GN 238; test: Resistant activity against β-lactamase, iodometric assay; type: biochemical; settings: β-lactamase from Pseudomonas aeruginosa GN 238; Potassium Penicillin G = 100
Experimental: (3) Resistant activity against β-lactamase, Pseudomonas aerugionsa GN 238:
The resistant activity of each compound against β-lactamase was measured in the manner described below.
β-Lactamase was prepared from Pseudomonas aeruginosa GN 238. This microorganism was cultured in 100 ml of a medium containing 2 g of yeast extract, 10 g of polypeptone, 2 g of glucose, 7 g of disodium hydrogen phosphate, 2 g of potassium dihydrogen phosphate, 1.2 g of ammonium sulfate and 0.4 g of magnesium sulfate, per liter, in a 500-ml Erlenmeyer flask for 6 hrs. at 37° C. with shaking. The resulting cells were collected by centrifugation (5,000 r.p.m.×10 min.), washed three times with 0.1 M phosphate buffer (pH 7.0). Subsequently, the cells were subjected to sonication (20 KHz, 20 min.) and then centrifuged at 15,000 r.p.m. for 60 min. By using the supernatant of enzyme fluid, the resistance of each compound against β-lactamase was determined by the iodometric assay method. Each numeral shown in Table 7 is a relative activity value calculated by assuming as 100 the activity of the control Potassium Penicillin G.

Shigella sonnei = test: MIC against clinical isolates; type: cell-based; settings: Table 5-5, clinical isolate; unit assumed
Experimental: (§1) The minimum inhibitory concentration (MIC) was determined by the plate method disclosed in "Chemotherapy" (Japan), Vol. 16, (1968), pages 98-99. The culture medium used was a Heart infusion agar (pH 7.4). The number of the cells per plate used in the inoculum was 10^4 (10^6 cells/ml).
(§2) MIC was determined in the same manner as in the preceding paragraph (1).

Shigella flexneri = test: MIC against clinical isolates; type: cell-based; settings: Table 5-5, clinical isolate; unit assumed
Experimental: as §1, §2

Staphylococcus aureus = test: MIC against clinical isolates; type: cell-based; settings: unit assumed
Pseudomonas aeruginosa = test: MIC against clinical isolates; type: cell-based; settings: unit assumed
Escherichia coli = test: MIC against clinical isolates; type: cell-based; settings: unit assumed
[2] = target: T1, β-lactamase, Proteus vulgaris GN 76 (Proteus vulgaris, UniProt P52664); test: Resistant activity against β-lactamase, iodometric assay; type: biochemical; settings: control Cephalorizine = 100
T1 construct: By using the supernatant of enzyme fluid; endogenous in cells; host or cells: Proteus vulgaris GN 76 (penicillin G-induced cells, sonicated, 15,000 r.p.m. supernatant)
T1 sequence (P52664 30-300): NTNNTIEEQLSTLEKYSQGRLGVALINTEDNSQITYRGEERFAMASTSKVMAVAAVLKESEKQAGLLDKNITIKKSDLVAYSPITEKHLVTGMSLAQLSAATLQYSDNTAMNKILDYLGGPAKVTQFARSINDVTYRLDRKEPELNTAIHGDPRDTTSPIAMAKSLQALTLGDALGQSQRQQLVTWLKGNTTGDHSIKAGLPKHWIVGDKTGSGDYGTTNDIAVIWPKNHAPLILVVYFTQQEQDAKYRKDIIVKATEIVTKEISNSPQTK
Experimental: (§3) (4) Resistant activity of each cephalosporin compound against β-lactamase, Proteus vulgaris GN 76 and Escherichia freundii GN 346:
(§4) The resistant activity of each cephalosporin compound against β-lactamase was measured in the manner described below.
(§5) β-lactamase was prepared from Proteus vulgaris GN 76 and Escherichia freundii GN 346. 10 ml of an overnight culture in Heart Infusion broth was diluted with 100 ml of a medium containing 2 g of yeast extract, 10 g of polypeptone, 2 g of glucose, 7 g of disodium hydrogen phosphate, 2 g of potassium dihydrogen phosphate, 1.2 g of ammonium sulfate and 0.4 g of magnesium sulfate, per liter, and incubated with shaking at 37° C. After incubation of 2 hrs, Penicillin G (50 μg/ml) was added as the inducer, and further incubated for 2 hrs. The resulting cells were collected by centrifugation (5,000 r.p.m.×10 min.) and washed two times with 0.1 M phosphate buffer (pH 7.0). Subsequently, the cells were subjected to sonication (20 KHz, 5 min.) and then centrifuged at 15,000 r.p.m. for 60 min. By using the supernatant of enzyme fluid, the stability of each compound against β-lactamase was determined by the iodometric assay method. Each numeral shown in Table 7-2 is a relative activity value calculated by assuming as 100 the activity of the control Cephalorizine.

[3] = target: β-lactamase, Escherichia freundii GN 346 (Citrobacter freundii, UniProt Q46041); test: as above; type: biochemical; settings: control Cephalorizine = 100
Sequence of β-lactamase, Escherichia freundii GN 346 (Q46041 entry or part of it): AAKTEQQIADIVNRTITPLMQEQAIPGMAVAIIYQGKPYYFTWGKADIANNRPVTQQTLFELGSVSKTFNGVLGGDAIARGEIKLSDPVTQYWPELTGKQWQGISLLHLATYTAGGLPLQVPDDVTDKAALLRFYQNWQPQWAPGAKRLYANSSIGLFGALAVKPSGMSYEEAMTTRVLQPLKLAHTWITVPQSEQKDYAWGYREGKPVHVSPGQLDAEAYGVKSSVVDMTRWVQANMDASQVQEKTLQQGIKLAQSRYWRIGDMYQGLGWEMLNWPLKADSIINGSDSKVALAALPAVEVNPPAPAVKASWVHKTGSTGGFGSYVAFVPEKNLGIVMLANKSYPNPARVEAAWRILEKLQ
Experimental: as §3, §4, §5

Klebsiella pneumoniae = test: MIC against clinical isolates; type: cell-based; settings: Table 6-4, clinical isolate; unit assumed

## CC1(C)S[C@@H]2[C@H](NC(=O)Cc3ccccc3)C(=O)N2[C@H]1C(=O)O [Potassium Penicillin G, reference compound]
[1]
  Relative activity (%), resistant activity against β-lactamase: 100%

## CC1(C)S[C@@H]2[C@H](NC(=O)C(C(=O)O)c3ccccc3)C(=O)N2[C@H]1C(=O)O (stereo partly drawn) [Sodium Carbenicillin, reference compound]
Shigella sonnei
  MIC Shigella sonnei JS 11232: > 200 mg/L
  MIC Shigella sonnei JS 11755: 12.5 mg/L
Shigella flexneri
  MIC Shigella flexneri JS 11215: > 200 mg/L
  MIC Shigella flexneri JS 11839: 12.5 mg/L
[1]
  Relative activity (%), resistant activity against β-lactamase: 116%
Staphylococcus aureus; Table 5-1, clinical isolate
  MIC Staphylococcus aureus F-1: 6.25 mg/L
  MIC Staphylococcus aureus F-2: 3.13 mg/L
  MIC Staphylococcus aureus F-3: 3.13 mg/L
  MIC Staphylococcus aureus F-4: 12.5 mg/L
  MIC Staphylococcus aureus MS 8588: 6.25 mg/L
  MIC Staphylococcus aureus MS 8596: 6.25 mg/L
  MIC Staphylococcus aureus MS 8684: 6.25 mg/L
  MIC Staphylococcus aureus MS 8713: 6.25 mg/L
Pseudomonas aeruginosa; Table 5-3, clinical isolate
  MIC Pseudomonas aeruginosa GN 383: 50 mg/L
Escherichia coli; Table 5-2, clinical isolate
  MIC Escherichia coli GN 3435: 6.25 mg/L
  MIC Escherichia coli GN 3452: 12.5 mg/L
  MIC Escherichia coli GN 3481: 6.25 mg/L
  MIC Escherichia coli K-1: 6.25 mg/L
  MIC Escherichia coli K-2: 6.25 mg/L
  MIC Escherichia coli K-4: 12.5 mg/L

## CC1=C(C(=O)O)N2C(=O)[C@@H](NC(=O)[C@H](N)c3ccccc3)[C@H]2SC1 [Sodium Cephalexin, reference compound]
[2]
  Relative activity (%) against β-lactamase, Pr. vulgaris GN 76: 150%
[3]
  Relative activity (%) against β-lactamase, E. freundii GN 346: 29%

## CC(=O)OCC1=C(C(=O)O)N2C(=O)[C@@H](NC(=O)[C@H](N)c3ccccc3)[C@H]2SC1 [Sodium Cephaloglycin, reference compound]
[2]
  Relative activity (%) against β-lactamase, Pr. vulgaris GN 76: 1300%
[3]
  Relative activity (%) against β-lactamase, E. freundii GN 346: 0.3%
Pseudomonas aeruginosa; Table 6-3, clinical isolate
  MIC Pseudomonas aeruginosa GN4: > 200 mg/L
Pseudomonas aeruginosa; Table 6-4, clinical isolate
  MIC Pseudomonas aeruginosa S-4: > 200 mg/L

## CC(=O)OCC1=C(C(=O)O)N2C(=O)[C@@H](NC(=O)Cc3cccs3)[C@H]2SC1 [Sodium Cephalothin, reference compound]
[2]
  Relative activity (%) against β-lactamase, Pr. vulgaris GN 76: 105%
[3]
  Relative activity (%) against β-lactamase, E. freundii GN 346: 17%
Klebsiella pneumoniae
  MIC Klebsiella pneumoniae GN 917: 3.13 mg/L
  MIC Klebsiella pneumoniae GN 4081: 12.5 mg/L
  MIC Klebsiella pneumoniae GN 4117: 6.25 mg/L
Staphylococcus aureus; Table 6-1, clinical isolate
  MIC Staphylococcus aureus F-1: < 0.4 mg/L
  MIC Staphylococcus aureus F-2: < 0.4 mg/L
  MIC Staphylococcus aureus F-3: < 0.4 mg/L
  MIC Staphylococcus aureus F-4: < 0.4 mg/L
  MIC Staphylococcus aureus F-5: 1.56 mg/L
  MIC Staphylococcus aureus MS 8588: < 0.4 mg/L
  MIC Staphylococcus aureus MS 8596: < 0.4 mg/L
  MIC Staphylococcus aureus MS 8619: < 0.4 mg/L
  MIC Staphylococcus aureus MS 8684: < 0.4 mg/L
  MIC Staphylococcus aureus MS 8713: < 0.4 mg/L
Pseudomonas aeruginosa; Table 6-3, clinical isolate, strain number not given
  MIC Pseudomonas aeruginosa GN: > 200 mg/L
Pseudomonas aeruginosa; Table 6-3, clinical isolate
  MIC Pseudomonas aeruginosa GN4: > 200 mg/L
  MIC Pseudomonas aeruginosa GN 82: > 200 mg/L
  MIC Pseudomonas aeruginosa GN 163: > 200 mg/L
  MIC Pseudomonas aeruginosa GN 221: > 200 mg/L
  MIC Pseudomonas aeruginosa GN 376: > 200 mg/L
  MIC Pseudomonas aeruginosa GN 1035: > 200 mg/L
  MIC Pseudomonas aeruginosa GN 1091: > 200 mg/L
  MIC Pseudomonas aeruginosa GN 2565: > 200 mg/L
  MIC Pseudomonas aeruginosa GN 2987: > 200 mg/L
Pseudomonas aeruginosa; Table 6-4, clinical isolate
  MIC Pseudomonas aeruginosa S-1: > 200 mg/L
  MIC Pseudomonas aeruginosa S-2: > 200 mg/L
  MIC Pseudomonas aeruginosa S-3: > 200 mg/L
  MIC Pseudomonas aeruginosa S-4: > 200 mg/L
Escherichia coli; Table 6-2, clinical isolate
  MIC Escherichia coli GN 3435: 6.25 mg/L
  MIC Escherichia coli GN 3452: 12.5 mg/L
  MIC Escherichia coli GN 3481: 12.5 mg/L
  MIC Escherichia coli K-1: 6.25 mg/L
  MIC Escherichia coli K-2: 6.25 mg/L

## CC1(C)S[C@@H]2[C@H](NC(=O)C(c3ccccc3)S(=O)(=O)O)C(=O)N2[C@H]1C(=O)O (stereo partly drawn) [Sodium Sulbenicillin, reference compound]
Shigella sonnei
  MIC Shigella sonnei JS 11232: > 200 mg/L
  MIC Shigella sonnei JS 11755: > 200 mg/L
Shigella flexneri
  MIC Shigella flexneri JS 11215: > 200 mg/L
  MIC Shigella flexneri JS 11839: 12.5 mg/L
[1]
  Relative activity (%), resistant activity against β-lactamase: 50%
Staphylococcus aureus; Table 5-1, clinical isolate
  MIC Staphylococcus aureus F-1: 6.25 mg/L
  MIC Staphylococcus aureus F-3: 6.25 mg/L
  MIC Staphylococcus aureus F-4: 6.25 mg/L
Escherichia coli; Table 5-2, clinical isolate
  MIC Escherichia coli GN 3435: 6.25 mg/L
  MIC Escherichia coli GN 3452: 12.5 mg/L
  MIC Escherichia coli GN 3481: 12.5 mg/L
  MIC Escherichia coli K-1: 6.25 mg/L
  MIC Escherichia coli K-2: 12.5 mg/L
  MIC Escherichia coli K-4: 6.25 mg/L
